Biological target: Human immunodeficiency virus type 1 protease (Human immunodeficiency virus 1, UniProt Q72874)
Test: Compound was assayed for inhibition against HIV protease activity

First: COc1ccc(S(=O)(=O)N(CC2CCCC2)C[C@@H](O)CN2C(=O)N(Cc3ccccc3)C[C@@H]2Cc2ccccc2)cc1
Second: COc1ccc(S(=O)(=O)N(CC2CCCC2)C[C@@H](O)CN2C(=O)[C@@H](Cc3ccccc3)C[C@@H]2Cc2ccccc2)cc1
The Ki of the first is 30-fold higher: 15 nM for the first, 0.5 nM for the second.

Compared with `COc1ccc(S(=O)(=O)N(CC2CCCC2)C[C@@H](O)CN2C(=O)COC[C@@H]2Cc2ccccc2)cc1`, `COc1ccc(S(=O)(=O)N(CC2CCCC2)C[C@@H](O)CN2C(=O)OC[C@@H]2Cc2ccccc2)cc1` is 1.5-fold higher in Ki: 1000 nM for the first, 1500 nM for the second. The first binds more tightly here.

Going from `COc1ccc(S(=O)(=O)N(CC2CCCC2)C[C@@H](O)CN2C(=O)CNC[C@@H]2Cc2ccccc2)cc1` to `COc1ccc(S(=O)(=O)N(CC2CCCC2)C[C@@H](O)CN2C(=O)C3(CCCCC3)NC[C@@H]2Cc2ccccc2)cc1`, the Ki falls from 3000 nM to 17 nM (180-fold).
